Measured values reported in patent US8173627B2, “Neuroprotective effect of solubilized UDCA in focal ischemic model” (priority 2004, dated 2012).

Assay: HPLC bile acid analysis of plasma and brain
Format: in vivo, rat
Settings: after UDCA and TUDCA administration
Procedure: Rats were separated into 5 groups, and each received a single injection of vehicle (n=18), 25 mg s-UDCA/Kg (n=9), 100 mg UDCA/Kg (n=18), 400 mg UDCA/kg (n=9), and 400 mg TUDCA/kg (n=9) intravenously immediately after reperfusion.
Blood and brain were collected 1 hour after s-UDCA, TUDCA, or vehicle injection, and were assessed by HPLC for bile acid analysis. Briefly, whole blood was drawn, clotted, and centrifuged and plasma was separated and frozen. After appropriate, humane anesthesia (5% chloral hydrate) and transcardial phosphate buffer perfusion, brains were removed, flash-frozen, and stored at −70° C. Free UDCA concentrations were measured by HPLC (JASCO HPLC Bile Acids Analysis System). Bile acids were assessed by HPLC according to, for example, U.S. patent application Ser. No. 09/778,154 filed Feb. 5, 2001, the full disclosure of which is hereby incorporated by reference.

- TUDCA detected in brain as well as blood: not detected
Compound: C[C@H](CCC(=O)NCCS(=O)(=O)O)[C@H]1CC[C@H]2[C@@H]3[C@@H](O)C[C@@H]4C[C@H](O)CC[C@]4(C)[C@H]3CC[C@]12C [TUDCA, tauroursodeoxycholic acid]
